Experimental data taken from patent publication US5591773A, “Inhibition of cataract formation, diseases resulting from oxidative stress, and HIV replication by caffeic acid esters” (priority 1994, dated 1997).
“Also recorded” adds a separate entry of the source.

Experiments:
HMdUrd in epidermal DNA = assay: TPA-induced HMdUrd formation in epidermal DNA of SENCAR mice; assay type: in vivo
Protocol: (§1) FIGS. 2A-2D. CAPE-mediated inhibition of TPA-induced oxidative processes in SENCAR mice. Mice were topically treated with 6.5 nmol CAPE 30 min prior to 6.5 nmol TPA, and this regimen was repeated 20 h later. Mice were sacrificed 1 h after the last treatment and the skin removed for determination of: (FIG. 2A) PMN infiltration (by measuring myeloperoxidase (MPO)); (FIG. 2B) H2 O2; (FIG. 2C) HMdUrd (HMdU); and (FIG. 2D) 8-OHdGua (8-OHdG), according to procedures described in the "Experimental Details" Section, infra. .quadrature., controls treated with acetone in place of CAPE and TPA; , treatment with acetone followed by TPA; .box-solid., treatment with CAPE followed by TPA. Results are expressed as mean ± SE (bars) from two experiments (2 mice/experiment) in the CAPE series. Data for acetone (ACT)- and TPA-treated mean values were collected from over 20 experiments.
(§2) C) MPO, H2 O2, and Oxidized DNA Bases. SENCAR mice were pretreated with CAPE for 30 min; then 6.5 nmol (4 μg) TPA/mouse topically applied to the dorsal skin. After 20 h, the CAPE and TPA treatment (1x) was repeated (2x treatment). One h after the second treatment, the mice were sacrificed by cervical dislocation, and 12.5-mm punches were obtained to be used separately for MPO and H2 O2 determinations. The remainder of the treated mouse skin or the combined skins from two mice were used for separation of epidermal cells. This was done by heating the skin at 55° C. for 30 s followed by rapid immersion into an ice-cold water bath (45). After the epidermis was scraped off, the presence of oxidized DNA base derivatives was measured in the epidermal DNA. All of these end points were analyzed by published procedures and are briefly described below.
(§3) The epidermis was homogenized and lysed, and the proteins and RNA were removed by proteinase K and RNase digestions, respectively (20). The DNA was separated and purified on A.S.A.P. columns (Boehringer-Mannheim Biochemicals) and precipitated with isopropyl alcohol.
(§4) The pellet was then washed with 70% ethyl alcohol, dried, and dissolved in 10 mM Tris.cndot.HCl-100 mM NaCl buffer, pH 7.0, according to the manufacturer's procedure. The DNA was sheared and enzymatically digested to nucleosides, and the hydrolysates were separated by HPLC (Beckman, Model 344) on an ODS column (Altex, 1×25 cm; 5 μm particle size) (50). The fractions that eluted after 30 ml were combined (excluding those containing normal nucleosides) and dried. The oxidized nucleosides were detected by ^3 H-postlabeling with [^3 H]acetic anhydride, followed by HPLC analysis of ^3 H-containing acetates in the presence of marker acetates (50). The results are presented as the number of oxidized nucleosides/10^4 normal bases, unless otherwise stated.
(§5) ^a Mice were treated as described in the legend to FIG. 2, except tha

[1] = tested on: 8-OHdGua in epidermal DNA; assay: TPA-induced 8-OHdGua formation in epidermal DNA of SENCAR mice; assay type: in vivo
Protocol: as §1, §2, §3, §4, §5

[2] = tested on: untransformed rat 6 cells; conditions: cited from earlier work
bovine lens (opacity) = assay: TPA-induced opacity of bovine lens; assay type: cell-based; conditions: 0.1 μM TPA, 24 h
Protocol: FIGS. 5A-5C. CAPE-mediated protection of bovine lens from TPA-induced opacity. Lenses were incubated with artificial aqueous humor only (FIG. 5A); incubated with 0.1 μM TPA (FIG. 5B); and pretreated with 1 μM CAPE for 30 min followed by 0.1 μM TPA (FIG. 5C) for 24 h. After incubation, the lenses were photographed against 3-mm grids.
B) Bovine Lens Bovine lenses were obtained from a New Jersey slaughterhouse 3 h after the animals were sacrificed. Lenses were immediately immersed in artificial aqueous humor (AAH; 130 mMNaCl, 5 mMKCl, 1 mM CaCl2, 0.5 mM MgCl2, 10 mM NaHCO3, 10 mM 4-(2-hydroxyethyl)-1-piperazineethanesulfonic acid (pH 7.3), and 2.5 mM D-glucose). Each of the bovine lenses in AAH (about 15 ml/lens) supplemented with 10 mM azide (a catalase inhibitor) was incubated with various amounts (0-1 μM) TPA at 37° C. for 24 h in the presence or absence of CAPE (1 μM), as described for use of other chemopreventive agents (31). For comparison, the lenses were also incubated with glucose (2.5 mM)/glucose oxidase (25 μM), a H2 O2 -generating system.
In some experiments, at the end of incubation [lenses in (a) AAH only (controls), (b) AAH+0.1 μM TPA, and (c) AAH+1 μM CAPE (30 min)+0.1 μM TPA] at 37° C. for 24 h, the lenses were photographed against a 3-mm grid.

HRPO = assay: Degradation of H2O2 / inhibition of HRPO; assay type: biochemical; conditions: unpublished results of Bhimani and Frenkel
[3] = tested on: TPA-induced cataracts in eyes of rabbits; assay: TPA-induced cataracts in rabbits in vivo; set-up: species or system white New Zealand rabbits; conditions: daily TPA-containing drops, 6 week period
[4] = CAPE 6.5 nmol, TPA 6.5 nmol, 2x

SMILES | HMdUrd/10^4 bases (HMdUrd in epidermal DNA; CAPE 6.5 nmol then TPA 6.5 nmol, 2x, (2 experiments), SE 0.6 on next line) | HMdUrd levels (in words) (HMdUrd in epidermal DNA; [4]) | decline of HMdUrd formation (HMdUrd in epidermal DNA; [4]) [%] | HMdUrd/10^4 bases (HMdUrd in epidermal DNA; CAPE 650 nmol then TPA 6.5 nmol, 2x, (2 experiments), SE 10.5 on next line) | 8-OHdGua/10^5 bases ([1]; CAPE 6.5 nmol then TPA 6.5 nmol, 2x, (2 experiments), SE 0.8 on next line) | 8-OHdGua suppression below acetone controls (basal levels) [1, 4] [%] | decline of 8-OHdGua formation [1, 4] [%] | 8-OHdGua/10^5 bases ([1]; CAPE 650 nmol then TPA 6.5 nmol, 2x, (2 experiments), SE 1.1 on next line) | inhibition of inflammatory processes, particularly oxidation of bases in DNA (in words) ([1]; compared with untreated blanks) | growth inhibition, untransformed rat 6 cells (in words) [2] | prevention of lens opacification (in words) (bovine lens (opacity); 1 μM CAPE) | degradation of H2O2 or inhibition of HRPO (in words) (HRPO) | alteration in lens transparency (in words) [3] | HMdUrd/10^4 bases (HMdUrd in epidermal DNA; TPA alone, 6.5 nmol, SE 6.4 on next line) | 8-OHdGua/10^5 bases ([1]; TPA alone, 6.5 nmol, SE 6.3 on next line) | lens opacity (in words) (bovine lens (opacity))
O=C(/C=C/c1ccc(O)c(O)c1)OCCc1ccccc1 [CAPE, Caffeic acid phenethyl ester] | 13.1 /10^4 bases | below the acetone/acetone controls | 115 | 30.5 /10^4 bases | 1.4 /10^5 bases | 70 | ~170 | 9.4 /10^5 bases | down to the background levels represented by untreated blanks | but not that of the untransformed rat 6 cells | almost completely prevented opacification of the lens; also recorded: suppressed formation of TPA-induced H2 O2 formation and opacification of lenses | does not degrade H2 O2 or inhibit HRPO | – | – | – | –
CCCCCCCCCCCCCC(=O)O[C@@H]1[C@@H](C)[C@@]2(O)[C@@H](C=C(CO)C[C@]3(O)C(=O)C(C)=C[C@@H]23)[C@@H]2C(C)(C)[C@]12OC(C)=O [TPA, 12-O-tetradecanoylphorbol-13-acetate] | – | – | – | – | – | – | – | – | – | – | – | – | failed to induce any visible alteration in the transparency of the lenses | 39.4 /10^4 bases | 11.8 /10^5 bases | caused opacity of the lens
